Assay results as given in patent US20250034171A1, “IMIDAZOPYRIDINE AMIDES AND RELATED COMPOUNDS FOR USE IN THE TREATMENT OF BACTERIAL INFECTIONS” (priority 2021, published 2025).
In brackets after ≈: the same amount, converted by molar mass.

Assays:
[1] = tested on: Salmonella typhimurium Ames II Mixed Strains (TA7001-TA7006) and TA98; assay: Genotoxicity assay (AmesIIb mutagenicity test); assay type: cell-based; conditions: Salmonella typhimurium; further: key: an AmesIIb score of 1 shows no genotoxicity signals
Method in brief: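 Histidine-requiring strains were exposed to graded compound concentrations, both without and with a mammalian metabolic activation system. Base substitutions were detected with a mixture of TA7001–TA7006 and frameshifts with TA98. Reversion to histidine independence was scored by growth in histidine-lacking medium.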

[2] = Metabolic stability in liver microsomes (intrinsic clearance); assay type: in vitro ADME; conditions: mouse, microsomes; for half-life at 1 µM: pH 7.4, Metabolic Stability Half life (mouse, min.); for microsomal CLint at 1 µM: pH 7.4, mouse liver microsomes, read-out: Metabolic Stability (liver microsome intrinsic clearance) Clearance (mouse, μl/min./mg protein)
Method in brief: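 Parent-compound loss, followed by LC-MS/MS peak area versus t=0, was tracked over 0, 5, 10, 20, 40 and 60 min in NADPH-initiated (1 mM) microsomal incubations: 0.5 mg/ml protein, pH 7.4 phosphate, 1 mM MgCl2, 37° C, substrate typically 1 μM. Half-life from regression gave intrinsic clearance per mg protein.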

[3] = tested on: Mycobacterium tuberculosis strain H37Rv; assay: Test 2: MIC determination against M. tuberculosis, resazurin fluorescence; assay type: cell-based; conditions: Mycobacterium tuberculosis, H37RV, Test 2, M. tuberculosis H37Rv; for MIC90: read-out: Bacterial activity MIC90; for IC50: read-out: Bacterial activity pMIC50 (converted)
[4] = HTChem stab assay (chemical stability in buffer pH2, pH4 and pH7 vs DMSO reference); assay type: physicochemical; conditions: 72 h, 50 µM; for Chemical stability data, Buffer pH2: pH 2; for Chemical stability data, Buffer pH4: pH 4; for Chemical stability data, Buffer pH7: pH 7
Method in brief: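 Compound from 10 mM DMSO stock shaken 72 h at room temperature in Buffer/DMSO (2:1) at pH2 (0.1N HCl), pH4 or pH7 (phosphate), alongside a DMSO control. Samples analysed by LC/UV/MS against the DMSO reference; degradant peaks identified by MS and sample purity reported.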

[5] = tested on: M. tuberculosis; conditions: cited from earlier work
[6] = tested on: M. tuberculosis H37Rv inside macrophages; conditions: strain M. tuberculosis H37Rv; cited from earlier work

Structure (SMILES)	GeneTox AmesIIb Score [1]	half-life at 1 µM [2] [h]	microsomal CLint at 1 µM [2] [µL/min/mg]	MIC90 [3] [µM]	IC50 [3] [pM]	Chemical stability data, Vehicle DMSO [4] [%]	Chemical stability data, Buffer pH2 [4] [%]	Chemical stability data, Buffer pH4 [4] [%]	Chemical stability data, Buffer pH7 [4] [%]	activity against MDR tuberculosis ([5]; MDR tuberculosis)	activity against replicating and non-replicating bacteria ([5]; replicating and non-replicating bacteria)	MIC50 [6] [µM]
CCc1nc2ncc(C)cn2c1C(=O)NCc1ccc(-c2nc3n(n2)CCCC3)cc1 [Compound 31ab]	1	> 3	< 7.7	0.052 (≈ 0.0216 µg/mL)	16000	100	100	100	100			
CCc1nc2nc(C)ccn2c1C(=O)NCc1ccc(-c2cn3c(n2)CC(C(F)(F)F)CC3)cc1 (stereo not drawn) [Compound 34ab]	1	> 3	< 7.7	0.387 (≈ 0.187 µg/mL)	94600	94	94	95	93			
CCc1nc2nc(F)ccn2c1C(=O)NCc1ccc(-c2cn3c(n2)CC(C)CC3)cc1 (stereo not drawn) [Compound 35ab]	1	0.498	46.4	0.041 (≈ 0.0177 µg/mL)	13400	100	100	99	98			
CCc1nc2ccc(Cl)cn2c1C(=O)NCc1ccc(N2CCC(c3ccc(OC(F)(F)F)cc3)CC2)cc1 [Compound Q203]										activity against MDR tuberculosis	highly active	0.00028 (≈ 0.000156 µg/mL)
